“And” between values parts separate entries of the source, which are not always exact repeats. Equal entries are not always repeated.
What was measured:
[1] = test system: propiconazole resistant Chlorella sorokiniana mutant PcZ-2 (CCAP 211/134); assay: Growth of propiconazole resistant mutant PcZ-2 in the presence of propiconazole (OD at 750 nm); format: cell-based; settings: 10 μM propiconazole; for Average % increase PcZ-2 + 10 uM PcZ: average of triplicates, compared with wild type without propiconazole; for % increase PcZ-2 + 10 μM PcZ: growth of PcZ-2 compared with wild type without propiconazole, individual replicates, 28° C., listed as PcZ
Method: (§1) Chlorella sorokiniana cells (Wild type) and propiconazole resistant mutants of Chlorella species (PcZ-2) were inoculated at 0.1-0.15 OD@750 nm (each set in triplicates). To verify the effect of methanol (propiconazole was dissolved in methanol), one set was treated with 0.1% methanol. One set of flasks in triplicate of Wild type and PcZ-2 mutants were inoculated with and without 10 μM propiconazole. After inoculation flasks were kept in 12 h light/12 hour dark cycles of white light in an incubator shaker at 100 rpm. The temperature was 28° C., 70% humidity and 2% ambient CO2. 3 mL sample was removed each day, to determine the Optical density (OD) of the culture at 750 nm. The results obtained are as illustrated in FIG. 1.
(§2) FIG. 1 illustrates a graph of the growth comparison between wild type Chlorella sorokiniana and propiconazole resistant Chlorella sorokiniana mutant PcZ-2, in the presence of propiconazole, wherein A represents wild type Chlorella sorokiniana in the absence of propiconazole, B represents wild type Chlorella sorokiniana grown in the presence of 0.1% methanol, C represents wild type Chlorella sorokiniana grown in the presence of 10 μM propiconazole, D represents PcZ-2 grown in the absence of propiconazole, E represents PcZ-2 grown in the presence of 0.1% methanol, and F represents PcZ-2 grown in the presence of 10 μM propiconazole.

[2] = test system: wild type Chlorella sorokiniana; assay: Growth of wild type Chlorella sorokiniana in the presence of propiconazole (OD at 750 nm); format: cell-based; settings: 10 μM propiconazole; FIG. 1
Method: as §1, §2

CCCC1COC(Cn2cncn2)(c2ccc(Cl)cc2Cl)O1 (centres unmarked) [propiconazole, Propiconazole]
growth of PcZ-2 in the presence of propiconazole ([1]; FIG. 1): capable of growing
Average % increase PcZ-2 + 10 uM PcZ ([1]; day 4): 62.66%
% increase PcZ-2 + 10 μM PcZ ([1]; day 4): 52.73% and 66.67% and 68.57%
Average % increase PcZ-2 + 10 uM PcZ ([1]; day 6): 20.01%
% increase PcZ-2 + 10 μM PcZ ([1]; day 6): 13.33% and 28.96% and 17.75%
Average % increase PcZ-2 + 10 uM PcZ ([1]; day 7): 21.07%
% increase PcZ-2 + 10 μM PcZ ([1]; day 7): 10.64% and 29.37% and 23.19%
growth of wild type Chlorella sorokiniana culture in the presence of propiconazole [2]: crashes after a few days

— patent publication US10694752B2 (priority 2016, dated 2020)
